Assays:
Format in all cases: cell-based, human
hnRNP A2/B1 transcript = experiment: real-time RT-PCR analysis of hnRNP A2/B1 transcripts in EGCG-treated cells
From the text: (§1) The GM00850 and GM04663 cell lines, homozygous for the IVS20^+6T→C FD-causing mutation, and the GM02912 cell line, derived from an unaffected individual, were obtained from the NIGMS Human Genetic Mutant Cell Repository. LA1-55n cells were provided by Dr. Robert A. Ross. EGCG and δ-tocotrienol were purchased from Calbiochem. A monoclonal antibody generated against a peptide encoded by exons 23-28 of IKBKAP was purchased from BD Biosciences. The 4B10 and DP3B3 monoclonal antibodies, which recognize hnRNP A1 and hnRNP A2/B1, respectively, were provided by Dr. Gideon Dreyfuss.
In order to identify agents that could modulate the level of the wild type IKAP transcript produced in FD-derived cells, either by increasing transcription or modulating splicing, FD-derived fibroblast cells (GM04663) were treated with EGCG. RNA was isolated from GM04663 cells treated for 24 h with varying concentrations of EGCG was subjected to real-time RT-PCR analysis using a pair of primers that recognize both of the hnRNP A2/B1 transcripts. […] The Quantitect SYBR Green RT-PCR Kit (Qiagen) was used for real-time RT-PR analysis of the relative quantities of the exon 20-containing transcript (wild-type), the exon 20-lacking transcript (mutant), and exon 34-35 containing transcript that is unaffected by the FD-causing mutation (total), as well as the hnRNP A2/B1 and hnRNP A1 transcripts. […]

hnRNP A1 transcript = experiment: real-time RT-PCR analysis of hnRNP A1 transcript in EGCG-treated cells; conditions: FD-derived and normal fibroblasts, 50 μg/ml EGCG, varying lengths of time
Protocol: In order to identify agents that could modulate the level of the wild type IKAP transcript produced in FD-derived cells, either by increasing transcription or modulating splicing, FD-derived fibroblast cells (GM04663) were treated with EGCG. RNA was isolated from GM04663 cells treated for 24 h with varying concentrations of EGCG was subjected to real-time RT-PCR analysis using a pair of primers that recognize both of the hnRNP A2/B1 transcripts. More specifically, FD-derived fibroblast cells, seeded in 96-well plates were treated in triplicate for approximately 24 h unless noted otherwise. […] The Quantitect SYBR Green RT-PCR Kit (Qiagen) was used for real-time RT-PR analysis of the relative quantities of the exon 20-containing transcript (wild-type), the exon 20-lacking transcript (mutant), and exon 34-35 containing transcript that is unaffected by the FD-causing mutation (total), as well as the hnRNP A2/B1 and hnRNP A1 transcripts. […]
(§2) To determine the effect of EGCG on the cellular level of the exon 20-containing (wild type) IKAP mRNA, FD-derived and normal fibroblasts were treated with 50 μg/ml EGCG for varying lengths of time. The levels of hnRNP A2/B1, hnRNP A1, IKAP exon 20-containing (wild type), IKAP exon 20-lacking (mutant), and IKAP exon 34-35-containing (total) transcripts were determined (FIG. 3).

IKAP transcript [1] = experiment: real-time RT-PCR analysis of IKAP RNA levels (exon 20-containing, exon 20-lacking) in treated cells; conditions: for level of the wild-type of IKAP transcript: GM04663 cells, 24 h, each agent by itself (5 ug/ml EGCG; 6.25 ug/ml δ-tocotrienol)
Protocol: In order to identify agents that could modulate the level of the wild type IKAP transcript produced in FD-derived cells, either by increasing transcription or modulating splicing, FD-derived fibroblast cells (GM04663) were treated with EGCG. RNA was isolated from GM04663 cells treated for 24 h with varying concentrations of EGCG was subjected to real-time RT-PCR analysis using a pair of primers that recognize both of the hnRNP A2/B1 transcripts. More specifically, FD-derived fibroblast cells, seeded in 96-well plates were treated in triplicate for approximately 24 h unless noted otherwise. After treatment, the cells were washed once with PBS and then lysed in 50 μl Cell-to-cDNA lysis buffer (Ambion) at 75° C. for 12 min. After one freeze-thaw cycle, 4 μl of lysate was used in 20 μl RT-PCR. The Quantitect SYBR Green RT-PCR Kit (Qiagen) was used for real-time RT-PR analysis of the relative quantities of the exon 20-containing transcript (wild-type), the exon 20-lacking transcript (mutant), and exon 34-35 containing transcript that is unaffected by the FD-causing mutation (total), as well as the hnRNP A2/B1 and hnRNP A1 transcripts.
The primers used for these analyses were as follows: for the exon 20-containing transcript, 5′-AGTTGTTCATCATCGAGC-3′ (SEQ ID NO: 3) and 5′-[…]-3′ (SEQ ID NO: 4); for exon 20-lacking transcript, 5′-[…]-3′ (SEQ ID NO: 5) and 5′-[…]-3′ (SEQ ID NO: 6); for exon […] containing transcript, 5′-GAGATCATCCAAGAATCGC-3′ (SEQ ID NO: 7) and 5′-GGTAGCTGAATTCTGCTG-3′ (SEQ ID NO: 8); for hnRNP A2/B1 transcript, 5′-GAGTTGTTTCTCGAGCAG-3′ (SEQ ID NO: 9) and 5′-TGATCTTTTGCTTGCAGG-3′ (SEQ ID NO: 10); and for hnRNP A1 transcript, 5′-[…]-3′ (SEQ ID NO: 11) and 5′-[…]-3′ (SEQ ID NO: 12). Primers were used at a concentration of 0.5 μM. An ABI PRISM 7000 Sequence Detection System (Applied Biosystems), programmed as follows, was used to perform the real-time RT-PCR and analysis: 50° C.×30 min and 95° C.×15 min for one cycle, followed by 40 cycles of 94° C.×15 s, 57-60° C.×30 s, and 72° C.×30 s. To present relative amounts of PCR product obtained, results are expressed as changes in the threshold cycle (ΔCT) compared to untreated cells. The threshold cycle refers to the PCR cycle at which the fluorescence of the PCR is increased to a calculated level above background. A change of 1.0 in CT, assuming 100% PCR efficiency, would reflect a twofold change in the starting amount of the RNA template that was amplified.
To control for the amount of RNA present in the samples, RT-PCR amplification of ribosomal 18S RNA was performed on all cell lysates. […] For this analysis, TaqMan Ribosomal RNA Control Reagents were used with the TaqMan EZ RT-PCR Kit (Applied Biosystems) as per the manufacturer's protocol.
as §2

IKAP transcript [2] = experiment: RT-PCR with primers in exons 19 and 23, agarose gel, of wild-type and mutant IKAP transcripts; conditions: 24 h, 50 μg/ml EGCG
Protocol: The effect of EGCG treatment was further monitored by RT-PCR analysis using primers located in exons 19 and 23 capable of amplifying both the normal and mutant forms of the IKAP transcript. 4 μl of cell lysates produced as described above was used in 20 μl RT-PCR using the One Step RT-PCR Kit (Qiagen) with the following primers which recognize sequences in exons 19 and 23 of IKBKAP: 5′-GCAGCAATCATGTGTCCCA-3′ (SEQ ID NO: 1) and 5′-TAGCATCGCAGACAAGGTC-3′ (SEQ ID NO: 2). The RT-PCR was carried out as follows: one cycle of 50° C.×30 min and 95° C.×15 min, followed by 41 cycles of 94° C.×20 s, 60° C.×30 s and 72° C.×15 s, and then a final extension of 72° C.×2 min. PCR products were analyzed on a 2% agarose gel.

hnRNP A2/B1 = experiment: Western blot analysis of hnRNP A2/B1 in EGCG-treated cells; conditions: GM00850 and GM04663 cells, 24 h, 50 μg/ml EGCG
From the text: as §1
(§3) GM00850 and GM04663 cells treated for 24 h with 50 μg/ml of EGCG were washed twice with PBS and lysed in 0.5 M Tris-HCl, pH 6.8, containing 1.4% SDS. Western blot analysis was performed essentially as described by Rubin et al. (Proc. Natl. Acad. Sci. USA 82: 6637-41 (1985)). Equal amounts of protein fractionated on a 7% NuPAGE Tris-Acetate Gel (Invitrogen) were blotted onto nitrocellulose (Bio-Rad) and probed overnight with a monoclonal antibody (BD Biosciences) to IKAP that is directed against the carboxyl end (exons 23-28) of IKAP and therefore recognizes the full-length protein. The blot was then washed and probed with a goat anti-mouse antibody conjugated to alkaline phosphatase (Promega), followed by detection with Western Blue Substrate solution (Promega). […]

hnRNP A1 = experiment: Western blot analysis of hnRNP A1 in EGCG-treated cells; conditions: GM00850 and GM04663 cells, 24 h, 50 μg/ml EGCG
From the text: as §1, §3

IKAP = experiment: Western blot analysis of full-length IKAP in treated FD-derived cells; conditions: FD-derived GM00850 and GM04663 fibroblasts, 24 h, 50 μg/ml EGCG
From the text: as §1, §3

Row | SMILES | level of the hnRNP A2/B1 transcript (hnRNP A2/B1 transcript; FD-derived GM04663 cells, 24 h, varying concentrations of EGCG) | level of the hnRNP A2/B1 transcript (hnRNP A2/B1 transcript; FD-derived and normal fibroblasts, 50 μg/ml EGCG, varying lengths of time) | level of the hnRNP A1 transcript (hnRNP A1 transcript) | level of the exon 20-lacking transcript (IKAP transcript [1]; 50 μg/ml EGCG, varying lengths of time) | exon 20-containing IKAP transcript (IKAP transcript [1]; FD-derived cells, 50 μg/ml EGCG, varying lengths of time) | level of the wild-type of IKAP transcript (IKAP transcript [1]) | exon 20-containing IKAP transcript (IKAP transcript [1]; normal cells (GM02912), 50 μg/ml EGCG, varying lengths of time) | exon 20-containing transcript (RT-PCR, exons 19-23, gel) (IKAP transcript [2]; FD-derived cells) | exon 20-containing transcript (RT-PCR, exons 19-23, gel) (IKAP transcript [2]; normal cells) | level of hnRNP A2/B1 (Western blot) (hnRNP A2/B1) | hnRNP A1 levels (Western blot) (hnRNP A1) | amount of IKAP (full-length protein, Western blot) (IKAP)
1 | O=C(O[C@@H]1Cc2c(O)cc(O)cc2O[C@@H]1c1cc(O)c(O)c(O)c1)c1cc(O)c(O)c(O)c1 [EGCG, epigallocatechin gallate] | clear concentration-dependent decrease | time-dependent reduction | no effect | not affected | elevated | did not result in a significant elevation | failed to exhibit an increase | clear enhanced presence | no effect | suppress the level | unaffected | clear increase
2 | CC(C)=CCC/C(C)=C/CC/C(C)=C/CC[C@]1(C)CCc2cc(O)cc(C)c2O1 [8-tocotrienol, δ-tocotrienol, reference compound] |  |  |  |  |  | did not result in a significant elevation |  |  |  |  |  | 
